assay: In vitro thromboxane receptor antagonist activity was determined by inhibition of U-46619 induced aggregation of washed human platelets

| Structure (SMILES) | IC50 [nM] |
| --- | --- |
| O=C(O)CC/C=C\CC[C@H]1[C@@H](OCc2ccc(-c3ccccc3)cc2)CS[C@@H]1c1cccnc1 [(Z)-7-[(2S,3S,4R)-4-(Biphenyl-4-ylmethoxy)-2-pyridin-3-yl-tetrahydro-thiophen-3-yl]-hept-4-enoic acid] | 46 |
| O=C(O)CCC/C=C\C[C@@H]1[C@@H](c2cccnc2)SC[C@H]1OCc1ccc(-c2ccccc2)cc1 [(Z)-7-[(2S,3S,4S)-4-(Biphenyl-4-ylmethoxy)-2-pyridin-3-yl-tetrahydro-thiophen-3-yl]-hept-5-enoic acid] | 228 |
| O=C(O)CC/C=C\CC[C@@H]1[C@@H](c2cccnc2)[S@+]([O-])C[C@H]1OCc1ccc(-c2ccccc2)cc1 | 77 |
| O=C(O)CC/C=C\CC[C@@H]1[C@@H](N2CCCCC2)[C@@H](O)C[C@@H]1OCc1ccc(-c2ccccc2)cc1 [GR 32191] | 12 |
| O=C(O)CC/C=C\CC[C@H]1[C@@H](OCc2ccc(-c3ccccc3)cc2)CS(=O)(=O)[C@@H]1c1cccnc1 [(Z)-7-[(2S,3S,4R)-4-(Biphenyl-4-ylmethoxy)-1,1-dioxo-2-pyridin-3-yl-tetrahydro-1lambda*6*-thiophen-3-yl]-hept-4-enoic acid] | 24 |
| O=C(O)CC/C=C\CC[C@@H]1[C@@H](c2cccnc2)S(=O)(=O)C[C@H]1OCc1ccc(-c2ccccc2)cc1 [(Z)-7-[(2S,3S,4S)-4-(Biphenyl-4-ylmethoxy)-1,1-dioxo-2-pyridin-3-yl-tetrahydro-1lambda*6*-thiophen-3-yl]-hept-4-enoic acid] | 18 |
| O=C(O)CC/C=C\CC[C@H]1[C@@H](OCc2ccc(-c3ccccc3)cc2)C[S+]([O-])[C@@H]1c1cccnc1 (stereo partly drawn) [(Z)-7-[(2S,3S,4R)-4-(Biphenyl-4-ylmethoxy)-1-oxo-2-pyridin-3-yl-tetrahydro-1lambda*4*-thiophen-3-yl]-hept-4-enoic acid] | 57 |
| O=C(O)CC/C=C\CC[C@@H]1[C@@H](c2cccnc2)[S@@+]([O-])C[C@H]1OCc1ccc(-c2ccccc2)cc1 | 105 |

assay: as above; remark: another data set of the same source

| Structure (SMILES) | IC50 [nM] |
| --- | --- |
| O=C(O)CC/C=C\CC[C@@H]1[C@@H](c2cccnc2)SC[C@H]1OCc1ccc(-c2ccccc2)cc1 [(Z)-7-[(2S,3S,4S)-4-(Biphenyl-4-ylmethoxy)-2-pyridin-3-yl-tetrahydro-thiophen-3-yl]-hept-4-enoic acid] | 46 |

assay: as above; remark: another data set of the same source

| Structure (SMILES) | IC50 [nM] |
| --- | --- |
| O=C(O)CC/C=C\CC[C@@H]1[C@@H](c2cccnc2)SC[C@H]1OCc1ccc(-c2ccccc2)cc1 [(Z)-7-[(2S,3S,4S)-4-(Biphenyl-4-ylmethoxy)-2-pyridin-3-yl-tetrahydro-thiophen-3-yl]-hept-4-enoic acid] | 22 |
